In ChEMBL document CHEMBL1201862, “PubChem BioAssay data set” (2004):
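96-well plates; 48 h exposure; 5 concentrations. Endpoints by linear interpolation between flanking doses. Not reached: highest tested concentration assigned. Abbreviation: GI50, concentration required for 50% inhibition of growth.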 Activity calls are given as the source filed them. No stated cut-off is given here; in the data, active = GI50 up to about 1.1 µM and inactive = higher.

Legend:
Experiment in all cases: growth of human tumour cells (NCI), 48 h
DU-145 = tested on: DU-145
HCC 2998 = tested on: HCC 2998
BT-549 = tested on: BT-549
T47D = tested on: T47D
ACHN = tested on: ACHN
Hs-578T = tested on: Hs-578T
COLO 205 = tested on: COLO 205
Malme-3M = tested on: Malme-3M
HCT-116 = tested on: HCT-116
HT-29 = tested on: HT-29
NCI-H522 = tested on: NCI-H522
U-251 = tested on: U-251
CAKI-1 = tested on: CAKI-1
SW-620 = tested on: SW-620
M14 = tested on: M14
SK-OV-3 = tested on: SK-OV-3
HOP-92 = tested on: HOP-92
NCI-H23 = tested on: NCI-H23
RXF 393 = tested on: RXF 393
CCRF-CEM = tested on: CCRF-CEM
SNB-75 = tested on: SNB-75
SF-268 = tested on: SF-268
A549 = tested on: A549
NCI/ADR-RES = tested on: NCI/ADR-RES
OVCAR-5 = tested on: OVCAR-5
SF-295 = tested on: SF-295
HCT-15 = tested on: HCT-15
OVCAR-4 = tested on: OVCAR-4
UACC-257 = tested on: UACC-257
SK-MEL-5 = tested on: SK-MEL-5
KM12 = tested on: KM12
UACC-62 = tested on: UACC-62
LOX IMVI = tested on: LOX IMVI
IGROV-1 = tested on: IGROV-1
MDA-N = tested on: MDA-N
EKVX = tested on: EKVX
MOLT-4 = tested on: MOLT-4
UO-31 = tested on: UO-31
MCF7 = tested on: MCF7
SN12C = tested on: SN12C
A498 = tested on: A498
SR = tested on: SR
TK-10 = tested on: TK-10
HL-60 = tested on: HL-60
MDA-MB-231 = tested on: MDA-MB-231
SK-MEL-28 = tested on: SK-MEL-28
K562 = tested on: K562
RPMI-8226 = tested on: RPMI-8226
NCI-H226 = tested on: NCI-H226
OVCAR-8 = tested on: OVCAR-8
HOP-62 = tested on: HOP-62
MDA-MB-435 = tested on: MDA-MB-435
786-0 = tested on: 786-0
SK-MEL-2 = tested on: SK-MEL-2
PC-3 = tested on: PC-3
OVCAR-3 = tested on: OVCAR-3

Measured: GI50

N#C/C(=C\c1ccccc1)C(=O)Nc1nnc(-c2ccccc2)o1
inactive: DU-145 50.4 µM | HCC 2998 63.1 µM | BT-549 28.2 µM | T47D 31.3 µM | ACHN 35.6 µM | Hs-578T > 100 µM | COLO 205 28.3 µM | Malme-3M 31 µM | HCT-116 33.3 µM | HT-29 41.3 µM | NCI-H522 38 µM | U-251 37.4 µM | CAKI-1 28.1 µM | SW-620 52.7 µM | M14 37.8 µM | SK-OV-3 31.8 µM | HOP-92 47.9 µM | NCI-H23 39 µM | RXF 393 34 µM | CCRF-CEM 17.9 µM | SNB-75 48.8 µM | SF-268 47.2 µM | A549 34.1 µM | NCI/ADR-RES 29.6 µM | OVCAR-5 82.6 µM | SF-295 13.2 µM | OVCAR-4 32.4 µM | UACC-257 25.7 µM | SK-MEL-5 19 µM | KM12 41.8 µM | UACC-62 22.3 µM | LOX IMVI 37.5 µM | IGROV-1 27.6 µM | MDA-N 35.4 µM | EKVX 47.3 µM | MOLT-4 33.1 µM | UO-31 29.4 µM | MCF7 50.9 µM | SN12C 36.7 µM | A498 27.3 µM | SR 25.6 µM | TK-10 > 100 µM | HL-60 20.7 µM | MDA-MB-231 31.5 µM | SK-MEL-28 39.9 µM | K562 26.4 µM | RPMI-8226 19.2 µM | NCI-H226 44.9 µM | OVCAR-8 36.1 µM | HOP-62 37.6 µM | MDA-MB-435 37.8 µM | 786-0 53 µM | SK-MEL-2 52.1 µM | PC-3 42.1 µM | OVCAR-3 14.8 µM
26.9 µM: HCT-15
